#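 Here, GI50 denotes the concentration required for 50% inhibition of growth. TGI: concentration producing complete growth inhibition.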
# Experiments:
# Test in all cases: NCI tumour cell line growth inhibition, 384-well format
# [1] = test system: SF-268 CNS
# [2] = test system: OVCAR-5 ovarian
# [3] = test system: COLO 205 colon
# [4] = test system: HS 578T breast
# [5] = test system: UO-31 renal
# [6] = test system: MCF7 breast
# [7] = test system: A549 NSCLC
# [8] = test system: UACC-62 melanoma
# [9] = test system: U251 glioblastoma
# [10] = test system: HCT-15 colon
# [11] = test system: T-47D breast
# [12] = test system: NCI-H23 lung
# [13] = test system: OVCAR-4 ovarian
# [14] = test system: SF-295 CNS
# [15] = test system: MOLT-4 leukemia
# [16] = test system: HOP-92 NSCLC
# [17] = test system: SN12C renal
# [18] = test system: HOP-62 NSCLC
# [19] = test system: RXF 393 renal
# [20] = test system: OVCAR-3 ovarian
# [21] = test system: KM12 colon
# [22] = test system: LOX IMVI melanoma
# [23] = test system: IGROV1 ovarian
# [24] = test system: HCC-2998 colon
# [25] = test system: EKVX NSCLC
# [26] = test system: 786-0 renal
# [27] = test system: SF-539 CNS
# [28] = test system: SK-OV-3 ovarian
# [29] = test system: HCT-116 colon
# [30] = test system: SNB-75 CNS
# [31] = test system: NCI-H322M lung
# [32] = test system: SR leukemia
# [33] = test system: HL-60(TB) leukemia
# [34] = test system: UACC-257 melanoma
# [35] = test system: MDA-MB-468 breast
# [36] = test system: M14 melanoma
# [37] = test system: NCI-H522 lung
# [38] = test system: K-562 leukemia
# [39] = test system: CCRF-CEM leukemia
# [40] = test system: RPMI-8226 leukemia
# [41] = test system: ACHN renal
# [42] = test system: SK-MEL-2 melanoma
# [43] = test system: A498 renal
# [44] = test system: MDA-MB-435 melanoma
# [45] = test system: MALME-3M melanoma
# [46] = test system: HT29 colon
# [47] = test system: NCI-H226 lung
# [48] = test system: SK-MEL-5 melanoma
# [49] = test system: DU-145 prostate
# [50] = test system: CAKI-1 renal
# [51] = test system: MDA-MB-231 breast
# [52] = test system: SK-MEL-28 melanoma
# [53] = test system: NCI/ADR-RES ovarian
# [54] = test system: PC-3 prostate
# [55] = test system: BT-549 breast
# [56] = test system: NCI-H460 NSCLC
# [57] = test system: SW-620 colon
# [58] = test system: TK-10 renal
# [59] = test system: OVCAR-8 ovarian
# [60] = test system: SNB-19 CNS
smiles,measurement,setting,value
O=C(O)c1ccc2c(c1)nc(Nc1cccc(Cl)c1)c1ccncc12,GI50,[1],1150 nM
same,TGI,[1],2870 nM
same,GI50,[2],1770 nM
same,TGI,[2],8810 nM
same,GI50,[3],1860 nM
same,TGI,[3],4140 nM
same,GI50,[4],445 nM
same,TGI,[4],2330 nM
same,GI50,[5],2150 nM
same,TGI,[5],6110 nM
same,GI50,[6],1490 nM
same,TGI,[6],4060 nM
same,GI50,[7],2990 nM
same,TGI,[7],> 100000 nM
same,GI50,[8],1370 nM
same,TGI,[8],2770 nM
same,GI50,[9],888 nM
same,TGI,[9],2460 nM
same,GI50,[10],1740 nM
same,TGI,[10],3660 nM
same,GI50,[11],1400 nM
same,TGI,[11],3550 nM
same,GI50,[12],1420 nM
same,TGI,[12],2970 nM
same,GI50,[13],1540 nM
same,TGI,[13],6770 nM
same,GI50,[14],1810 nM
same,TGI,[14],4590 nM
same,GI50,[15],1400 nM
same,TGI,[15],2730 nM
same,GI50,[16],1420 nM
same,TGI,[16],4650 nM
same,GI50,[17],1500 nM
same,TGI,[17],3690 nM
same,GI50,[18],1730 nM
same,TGI,[18],3860 nM
same,GI50,[19],1560 nM
same,TGI,[19],3980 nM
same,GI50,[20],399 nM
same,TGI,[20],1950 nM
same,GI50,[21],1890 nM
same,TGI,[21],4380 nM
same,GI50,[22],1870 nM
same,TGI,[22],3800 nM
same,GI50,[23],1950 nM
same,TGI,[23],4640 nM
same,GI50,[24],1380 nM
same,TGI,[24],3890 nM
same,GI50,[25],1480 nM
same,TGI,[25],3930 nM
same,GI50,[26],1750 nM
same,TGI,[26],4750 nM
same,GI50,[27],1190 nM
same,TGI,[27],3000 nM
same,GI50,[28],1430 nM
same,TGI,[28],3940 nM
same,GI50,[29],1530 nM
same,TGI,[29],3080 nM
same,GI50,[30],1410 nM
same,TGI,[30],3850 nM
same,GI50,[31],1080 nM
same,TGI,[31],3290 nM
same,GI50,[32],1450 nM
same,TGI,[32],2770 nM
same,GI50,[33],1540 nM
same,TGI,[33],2930 nM
same,GI50,[34],1570 nM
same,TGI,[34],3460 nM
same,GI50,[35],656 nM
same,TGI,[35],2050 nM
same,GI50,[36],1270 nM
same,TGI,[36],3080 nM
same,GI50,[37],521 nM
same,TGI,[37],1840 nM
same,GI50,[38],1500 nM
same,TGI,[38],3320 nM
same,GI50,[39],1180 nM
same,TGI,[39],2420 nM
same,GI50,[40],1880 nM
same,TGI,[40],3350 nM
same,GI50,[41],2520 nM
same,TGI,[41],8010 nM
same,GI50,[42],2970 nM
same,TGI,[42],4540 nM
same,GI50,[43],1420 nM
same,TGI,[43],3310 nM
same,GI50,[44],1450 nM
same,TGI,[44],3330 nM
same,GI50,[45],1040 nM
same,TGI,[45],2560 nM
same,GI50,[46],2950 nM
same,TGI,[46],10100 nM
same,GI50,[47],1260 nM
same,TGI,[47],2660 nM
same,GI50,[48],1400 nM
same,TGI,[48],2710 nM
same,GI50,[49],1710 nM
same,TGI,[49],5200 nM
same,GI50,[50],1530 nM
same,TGI,[50],3730 nM
same,GI50,[51],1560 nM
same,TGI,[51],3700 nM
same,GI50,[52],1470 nM
same,TGI,[52],3160 nM
same,GI50,[53],1690 nM
same,TGI,[53],3280 nM
same,GI50,[54],1600 nM
same,TGI,[54],3690 nM
same,GI50,[55],1020 nM
same,TGI,[55],2670 nM
same,GI50,[56],2280 nM
same,TGI,[56],7890 nM
same,GI50,[57],2030 nM
same,TGI,[57],4790 nM
same,GI50,[58],2140 nM
same,TGI,[58],5810 nM
c1ccc(Cn2c(-c3ccc(OC[C@H](C4CCNCC4)n4c(-c5ccccc5)nc5ccccc54)cc3)nc3ccccc32)cc1,GI50,[1],1800 nM
same,TGI,[1],3200 nM
same,GI50,[2],2030 nM
same,TGI,[2],3470 nM
same,GI50,[3],1820 nM
same,TGI,[3],3230 nM
same,GI50,[5],1870 nM
same,TGI,[5],3270 nM
same,GI50,[59],1810 nM
same,TGI,[59],3220 nM
same,GI50,[6],1610 nM
same,TGI,[6],2980 nM
same,GI50,[7],1840 nM
same,TGI,[7],3260 nM
same,GI50,[8],1890 nM
same,TGI,[8],3300 nM
same,GI50,[9],1590 nM
same,TGI,[9],2960 nM
same,GI50,[10],1860 nM
same,TGI,[10],3280 nM
same,GI50,[11],1610 nM
same,TGI,[11],2970 nM
same,GI50,[12],2230 nM
same,TGI,[12],3680 nM
same,GI50,[13],1510 nM
same,TGI,[13],2850 nM
same,GI50,[14],1860 nM
same,TGI,[14],3270 nM
same,GI50,[15],1160 nM
same,TGI,[15],2410 nM
same,GI50,[16],1630 nM
same,TGI,[16],2990 nM
same,GI50,[17],1820 nM
same,TGI,[17],3220 nM
same,GI50,[60],1970 nM
same,TGI,[60],3400 nM
same,GI50,[18],2020 nM
same,TGI,[18],3460 nM
same,GI50,[19],1580 nM
same,TGI,[19],2920 nM
same,GI50,[20],1810 nM
same,TGI,[20],3220 nM
same,GI50,[21],1800 nM
same,TGI,[21],3210 nM
same,GI50,[22],2330 nM
same,TGI,[22],3800 nM
same,GI50,[23],1650 nM
same,TGI,[23],3020 nM
same,GI50,[24],1360 nM
same,TGI,[24],2650 nM
same,GI50,[26],1730 nM
same,TGI,[26],3120 nM
same,GI50,[27],1660 nM
same,TGI,[27],3030 nM
same,GI50,[28],1680 nM
same,TGI,[28],3060 nM
same,GI50,[29],1450 nM
same,TGI,[29],2780 nM
same,GI50,[31],1690 nM
same,TGI,[31],3060 nM
same,GI50,[32],1170 nM
same,TGI,[32],2410 nM
same,GI50,[33],1790 nM
same,TGI,[33],3180 nM
same,GI50,[34],1270 nM
same,TGI,[34],2530 nM
same,GI50,[35],1970 nM
same,TGI,[35],3390 nM
same,GI50,[36],1790 nM
same,TGI,[36],3180 nM
same,GI50,[37],1890 nM
same,TGI,[37],3290 nM
same,GI50,[38],1500 nM
same,TGI,[38],2830 nM
same,GI50,[39],1260 nM
same,TGI,[39],2520 nM
same,GI50,[40],971 nM
same,TGI,[40],2140 nM
same,GI50,[41],1840 nM
same,TGI,[41],3250 nM
same,GI50,[42],1510 nM
same,TGI,[42],2840 nM
same,GI50,[43],1700 nM
same,TGI,[43],3080 nM
same,GI50,[44],2000 nM
same,TGI,[44],3430 nM
same,GI50,[45],1790 nM
same,TGI,[45],3180 nM
same,GI50,[46],1660 nM
same,TGI,[46],3040 nM
same,GI50,[47],1770 nM
same,TGI,[47],3160 nM
same,GI50,[48],1820 nM
same,TGI,[48],3220 nM
same,GI50,[49],1860 nM
same,TGI,[49],3280 nM
same,GI50,[50],1840 nM
same,TGI,[50],3240 nM
same,GI50,[51],1890 nM
same,TGI,[51],3300 nM
same,GI50,[52],1830 nM
same,TGI,[52],3230 nM
same,GI50,[53],2400 nM
same,TGI,[53],5200 nM
same,GI50,[54],1830 nM
same,TGI,[54],3250 nM
same,GI50,[55],1700 nM
same,TGI,[55],3080 nM
same,GI50,[56],1700 nM
same,TGI,[56],3120 nM
same,GI50,[57],1740 nM
same,TGI,[57],3140 nM
same,GI50,[58],1850 nM
same,TGI,[58],3250 nM
